Measured values published in US20250230226A1, “PLXDC1/PLXDC2 ACTIVATORS AND THEIR USE IN THE TREATMENT OF BLOOD VESSEL DISORDERS” (THE REGENTS OF THE UNIVERSITY OF CALIFORNIA, priority 2019, published 2025).

Tested on: LL/2 lung cancer tumor endothelial cells
Assay: Lung LL2 ex vivo model of tumor angiogenesis
Format: cell-based, mouse
Settings: for 48 hrs (morphology observations): LL/2 tumor endothelial cells; for Cell death: drug treatment for two days, ratio of red area to total endothelial cell area
Procedure: An ex vivo tumor angiogenesis model was developed to test the efficacy of anti-cancer candidate agents. The following protocol describes the Ex Vivo Tumor Angiogenesis Model.
• 1. The day before the experiment, all necessary tools were sprayed with 70% ethanol and sterilized under UV light overnight, including blade, dissecting and micro-dissecting scissors and […]. 24-well dishes were placed at 4° C. to pre-chill plates and Matrigel was thawed, 24 hours before tumor dissection. • 2. 70% ethanol was sprayed on working bench. Two sterile petri dishes were prepared with 10 ml sterile PBS. The following steps 3 and 4 are necessary for mouse tumor models. For fresh human tumor, steps 3 and 4 are skipped. • 3. The tumor-bearing mice were euthanized. 70% ethanol was sprayed on the mouse and the tumor was removed using sterilized dissecting tools (avoid the fur). The tumor was rinsed in petri dish with sterile PBS to remove ethanol and fur. The tumor was transferred to a new petri dish with PBS for dissection. The dish is placed on ice. • 4. Pre-chilled sterile pipet tips were used to seed regular Matrigel in 24 well plates on ice. Matrigel (30 μl) was dropped in the middle of each well without touching the edge of the well (avoid introducing bubbles if possible). • 5. The tumor was cut in halves using the sterile blade. Healthy tumor tissue that is not necrotic and is within the tumor capsule was identified and isolated. The healthy tumor tissue was cut into small pieces. For instance, a suitable size for the tumor tissue is 0.5 mm (H)×0.5 mm (L)×0.3 mm (D) with a total volume of 0.075 mm^3. • 6. Each tumor piece was gently transferred and embedded in the Matrigel drop in the 24-well plate. The embedded piece was placed in the bottom and middle of each Matrigel drop. The plate was kept on ice all the time. • 7. After seeding the tumor pieces, plates were incubated in a 37° C. cell culture incubator without medium for 10 minutes in order for the Matrigel to solidify. • 8. Endothelial Growth Medium (0.5 ml) was added to each well and incubated at 37° C. with 5% CO2. Treatment was not added until the new endothelial cells was grown out of the tumor or were larger than 3 mm in diameter. This usually takes 4 days for the LL2 Lewis lung cancer model and 7 days for the CT26 colon cancer model. For human tumor models, the growth time is typically 2-3 weeks, depending on the tumor type. Media was changed every 4 days during prolonged culture. Typically, when the tumor tissue grows to 2 mm in diameter, it was good for drug testing. A size of about 3 mm in diameter can make visualization easier. • 9. When the assay was ready to be analyzed for cell death (e.g., 48 hours after drug addition), the dye mixture was prepared by mixing 6 μl of green dye to stain live cells (5 mg/ml Fluorescein diacetate or FDA in DMSO) with 30 μl of red dye (2.5 mg/ml Propidium iodide or PI in PBS) to stain dead cells in an Eppendorf tube. The FDA dye needs to be stored frozen in a −20° C. freezer because it has a labile ester bond. • 10. 1 μl of the dye mixture was added to each well of the 24-well dish. It is usually preferred to do one 24-well dish at a time given the amount of time needed to take pictures (the green dye is not as stable in the cells in the long term). • 11. The dish was gently rocked a few times to mix the dye with the media in the wells and incubate the dish at 37° C. for 10 min (too long incubation can make the green signal too intense). • 12. Each well was washed with 0.5 ml of sterile PBS and then 0.5 ml of phenol red free SFM was added to each well. Alternatively 0.5 ml of regular Endothelial Cell Growth Media can be added to each well if this well needs to be continuously maintained after the experiment. • 13. An inverted microscope using the 2× objective lens was used to observe morphological changes in the experimental wells. • 14. […]

[1] = Mus musculus, Endothelial cell, 48 h, read-out: Cell death

Row | SMILES | 48 hrs (morphology observations) (40 μm) | Cell death (20 μm) [%] | 48 hrs (morphology observations) (20 μm) | further results
1 | CCOC(=O)c1ccc2ncc(S(=O)(=O)c3ccc(OC)cc3)c(NN3CCN(C)CC3)c2c1 [Compound 225] | 0 | – | – | Cell death (40 μm): 40%
2 | CCCCOc1ccc(S(=O)(=O)c2cnc3ccc(C(=O)NC4C(O)O[C@H](CO)[C@@H](O)[C@@H]4O)cc3c2N2CCCN(C)CC2)cc1 (stereo partly drawn) [Compound 193] | 0 | – | – | cytotoxicity at 40 µM [1]: 30%
3 | CCCCOc1ccc(S(=O)(=O)c2cnc3ccc(SC)cc3c2N2CCC(N3CCN(c4ccc(F)cc4)CC3)CC2)cc1 [Compound 233] | 0 | – | – | Cell death (40 μm): 5%
4 | CCOC(=O)c1ccc2ncc(S(=O)(=O)c3ccc(CC)cc3)c(-n3nnc4ccccc43)c2c1 [Compound 133] | – | 10 | – | –
5 | CCCCCCCCCCOc1ccc(S(=O)(=O)c2cnc3ccc([S+](C)[O-])cc3c2N2CCC(N3CCC(O)(c4ccccc4)CC3)CC2)cc1 (stereo not drawn) [Compound 270] | – | – | * (50% or less of cells vesicularize in cell shape) | –
6 | CCOC(=O)c1ccc2ncc(S(=O)(=O)c3ccc(OC)cc3)c(N3CCCN(CCN4CCCC4)CC3)c2c1 [Compound 180] | – | – | – | 48 hrs (morphology observations) (10 μm): *** (more than 50% but less than 100% of endothelial cells vesicularize in cell shape); Cell death (10 μm): 70%
7 | CCCCOc1ccc(S(=O)(=O)c2cnc3ccc(SC)cc3c2N2CCCN(S(=O)(=O)NCC(F)(F)F)CC2)cc1 [Compound 353] | 0 | – | – | cytotoxicity at 40 µM [1]: 0%
8 | CCCCCCCCCCCCCCOc1ccc(S(=O)(=O)c2cnc3ccc([S+](C)[O-])cc3c2N2CCC(N3CCC(N4CCCC(O)C4)CC3)CC2)cc1F (stereo not drawn) [Compound 364] | – | – | *** (more than 50% but less than 100% of endothelial cells vesicularize in cell shape) | cytotoxicity at 20 µM [1]: 30%
9 | CCc1ccc(S(=O)(=O)c2cnc3ccc(OC(F)(F)F)cc3c2NCc2ccncc2)cc1 [Compound 106] | – | 5 | 0 | –
10 | CCCCCCCOc1ccc(S(=O)(=O)c2cnc3ccc(SC)cc3c2N2CCC(N3CCC(O)CC3)CC2)cc1 [Compound 223] | *** (more than 50% but less than 100% of endothelial cells vesicularize in cell shape) | – | – | cytotoxicity at 40 µM [1]: 30%
11 | CCCCOc1ccc(S(=O)(=O)c2cnc3ccc(SC)cc3c2N2CCCN(C3CCS(=O)(=O)CC3)CC2)cc1 [Compound 359] | 0 | – | – | cytotoxicity at 40 µM [1]: 20%
12 | CCCCCCCCCCOc1ccc(S(=O)(=O)c2cnc3ccc([S+](C)[O-])cc3c2N2CCC(N3CCC(N4CCN(CCO)CC4)CC3)CC2)cc1 (stereo not drawn) [Compound 292] | – | – | – | Cell death, read at 24 hrs (20 μm): 10%; Endothelial cell morphology score at 24 hrs (20 μm): * (50% or less of cells vesicularize in cell shape)
13 | CCN(CC)CCC(C)Nc1c(S(=O)(=O)c2ccc(OC)cc2)cnc2cc(OC)c(OC)cc12 (stereo not drawn) [Compound 300] | 0 | – | – | Cell death (40 μm): 20%
14 | CCCCCCCCCCOc1ccc(S(=O)(=O)c2cnc3ccc([S+](C)[O-])cc3c2N2CCC(N3CCN(CCO)CC3)CC2)cc1 (stereo not drawn) [Compound 268] | – | 50 | *** (more than 50% but less than 100% of endothelial cells vesicularize in cell shape) | –
15 | CCOC(=O)c1ccc2ncc(S(=O)(=O)c3ccc(OC)cc3)c(N3CCC(N4CCC(CO)CC4)CC3)c2c1 [Compound 175] | 0 | – | – | Cell death (40 μm): 30%
16 | CCCCCCCOc1ccc(S(=O)(=O)c2cnc3ccc(SC)cc3c2N2CCC(N3CCN(CCO)CC3)CC2)cc1 [Compound 250] | – | 90 | *** (more than 50% but less than 100% of endothelial cells vesicularize in cell shape) | –
17 | CCc1ccc(S(=O)(=O)c2cnc3ccc(OC(F)(F)F)cc3c2-n2cccn2)cc1 [Compound 109] | – | 0 | 0 | –
18 | CCCCOc1ccc(S(=O)(=O)c2cnc3ccc(SC)cc3c2N2CCC(N3CCC(N4CCCCC4)CC3)CC2)cc1 [Compound 231] | *** (more than 50% but less than 100% of endothelial cells vesicularize in cell shape) | – | – | Cell death (40 μm): 100%
19 | CCCCCCCOc1ccc(S(=O)(=O)c2cnc3ccc(SC)cc3c2N2CCC(N3CCCC(O)C3)CC2)cc1 (stereo not drawn) [Compound 247] | – | 60 | *** (more than 50% but less than 100% of endothelial cells vesicularize in cell shape) | –
20 | CCCCCCCCCCOc1ccc(S(=O)(=O)c2cnc3ccc([S+](C)[O-])cc3c2N2CCC(N3CCC(N4CCCN(C)CC4)CC3)CC2)cc1 (stereo not drawn) [Compound 287] | – | – | – | Cell death, read at 24 hrs (20 μm): 40%; Endothelial cell morphology score at 24 hrs (20 μm): * (50% or less of cells vesicularize in cell shape)
21 | CCCCCCCCCCOc1ccc(S(=O)(=O)c2cnc3ccc([S+](C)[O-])cc3c2N2CCC(N3CCN(CCO)CC3)CC2)cc1F (stereo not drawn) [Compound 291] | – | – | – | Cell death, read at 24 hrs (20 μm): 10%; Endothelial cell morphology score at 24 hrs (20 μm): * (50% or less of cells vesicularize in cell shape)
22 | CCCCCCCOc1ccc(S(=O)(=O)c2cnc3ccc([S+](C)[O-])cc3c2N2CCN(CCN3CCCC3)CC2)cc1 (stereo not drawn) [Compound 276] | – | 100 | *** (more than 50% but less than 100% of endothelial cells vesicularize in cell shape) | –
23 | CCCCOc1ccc(S(=O)(=O)c2cnc3ccc(SC)cc3c2N2CCCN(CCO)CC2)cc1 [Compound 351] | *** (more than 50% but less than 100% of endothelial cells vesicularize in cell shape) | – | – | cytotoxicity at 40 µM [1]: 100%
24 | CCCCCCCCCCOc1ccc(S(=O)(=O)c2cnc3ccc([S+](C)[O-])cc3c2N2CCCN(CCN3CCCCC3)CC2)cc1 (stereo not drawn) [Compound 266] | – | – | – | 48 hrs (morphology observations) (10 μm): 0; Cell death (10 μm): 5%
25 | CCCCCCCOc1ccc(S(=O)(=O)c2cnc3ccc(SC)cc3c2N2CCN(C3CCN(Cc4ccccc4)C3)CC2)cc1 (stereo not drawn) [Compound 274] | – | 10 | 0 | –
26 | CCCCOc1ccc(S(=O)(=O)c2cnc3ccc(SC)cc3c2N2CCC(N3CCOCC3)CC2)cc1 [Compound 229] | 0 | – | – | Cell death (40 μm): 30%
27 | CCCCCCCOc1ccc(S(=O)(=O)c2cnc3ccc(SC)cc3c2N2CCC(N3CCCN(C)CC3)CC2)cc1 [Compound 249] | – | 60 | *** (more than 50% but less than 100% of endothelial cells vesicularize in cell shape) | –
28 | CC(C)CCCC(C)CCOc1ccc(S(=O)(=O)c2cnc3ccc([S+](C)[O-])cc3c2N2CCC(N3CCC(N4CCCCC4)CC3)CC2)cc1 (stereo not drawn) [Compound 289] | – | 20 | – | –
29 | CCCCOc1ccc(S(=O)(=O)c2cnc3ccc([S+](C)[O-])cc3c2N2CCC(N3CCC(O)CC3)CC2)cc1 (stereo not drawn) [Compound 168] | – | 10 | 0 | –
30 | CCCCCCCCCCOc1ccc(S(=O)(=O)c2cnc3ccc([S+](C)[O-])cc3c2N2CCC(N3CCCC(O)C3)CC2)cc1 (stereo not drawn) [Compound 265] | – | – | – | 48 hrs (morphology observations) (10 μm): * (50% or less of cells vesicularize in cell shape); Cell death (10 μm): 20%
